Columns and labels:
[1] = system: femoral artery blood flow; test: Blood flow-increasing action (average femoral artery blood flow after intraarterial injection, relative to papaverine); type: in vivo, mongrel dogs; details: anesthetized dogs, dose 0.03, 0.003 or 0.0003 mg/kg, papaverine 0.03 mg/kg = 1.00
Description: The blood flow at a femoral artery is measured by each of four male and female mongrel dogs weighing from 10 to 14 kg. That is, each subject is anesthetized by injecting intravenously 30 mg/kg of pentobarbital and one side femoral artery is exposed. A probe (2.5 mm diameter) of a magnetic blood flow meter (Model MF-26, a product of Nihon-Koden K.K.) is fitted to this artery and a catheter is inserted into and fixed to a side branch of this femoral artery. Intraarterial injection of 0.1 ml of the sample is then made and the average blood flow is measured. The dose of the sample is 0.03 mg/kg. When the blood flow-increasing action is strong, the dose is made 0.003 mg/kg and when the blood flow-increasing action is even stronger, it is made 0.0003 mg/kg in order to conduct the experiments. […] The numerical values in Table 1 represent the relative values of the compounds of this invention when the height of the blood flow-increase curve obtained by administration of 0.03 mg/kg papaverine is arbitrarily assigned the value 1.00. In other words, these values represent the ratio of the efficacy of the compounds of this invention relative to the activity of papaverine, with the latter being assigned the value 1.

[2] = system: phenylquinone-induced writhing in mice; test: Analgesic action: anti-writhing activity in mice (phenylquinone); type: in vivo; details: 4 mice
Description: The analgesic action of the compounds of the present invention was examined by the following experiment, using the writhing method disclosed in E. Siegmund et al; Proc. Soc. Exp. Biol. & Med., Vol. 95, 729 (1957).
Thirty minutes after subcutaneous injection of the compounds of the present invention, 2 mg/kg of phenylquinone was injected intraperitoneally to the mice. And 5 minutes later, the total number of writhes was counted for 4 minutes. Four mice were used for each dose level.

[3] = system: grooming behavior in mice; test: Inhibition of grooming behavior in mice; type: in vivo; details: for Number of grooming responses: 20-minutes count, 10 mice
Description: The grooming behavior-inhibiting action of the compounds of the present invention was examined by the following experiments, using the method disclosed in O. Rohte; Psychopharmacologia, Vol. 14, 18-22 (1969).
In this experiment, each sample (the compounds of the present invention, and chlorpromazine and diazepam as control medicines) was prepared in a form of 5% arabic gum suspension of 0.1 ml/10 g body weight of the animal.
Forty minutes after oral administration of each sample, the oily ink was painted on each mouse. And 10 minutes later, the number of grooming responses was counted for a 20-minutes period. A 5% arabic gum solution alone was administered to the control group.

[4] = system: fighting behavior in mice; test: Inhibition of the fighting behavior in mice; type: in vivo; details: for No. of fighting episodes: one hour after administration, 10 experiments
Excerpt: The anti-fighting action was examined in the following experiment, using the method disclosed in Ralph E. Tedeshi et al, Journal of Pharmacology and Experimental Therapeutics, Vol. 125, 28-34 (1959).
A pair of mice was placed in a plastic cage (16×10×18 cm) with the grid floor and applied electrical shocks (3 mA, 5 Hz, 50 msec.) during a 3-minutes period to their feet to induce the fighting behavior between the mice.
In this experiment, each sample (the compounds of the present invention, and chlorpromazine and diazepam as control medicines) was prepared in a form of a 5% arabic gum suspension and was orally administered to the mice. One hour after oral administration, the fighting behavior was observed. A 5% arabic gum solution was administered to the control group. Ten pairs of mice were used for each dose level.

SMILES: COc1ccccc1N1CCN(CCCCCCn2c(=O)c3c(ncn3C)n(C)c2=O)CC1
- Specific activity (blood flow increase relative to papaverine = 1) [1]: 404

SMILES: Cn1cnc2c1c(=O)n(CCCCCN1CCN(c3ccccc3)CC1)c(=O)n2C
- Specific activity (blood flow increase relative to papaverine = 1) [1]: 247

SMILES: COc1ccccc1N1CCN(CCCn2c(=O)c3c(ncn3C)n(C)c2=O)CC1
- Specific activity (blood flow increase relative to papaverine = 1) [1]: 143

SMILES: COc1ccccc1N1CCN(CCn2c(=O)c3c(ncn3C)n(C)c2=O)CC1
- Specific activity (blood flow increase relative to papaverine = 1) [1]: 95

SMILES: Cc1cccc(C)c1N1CCN(CCCCn2c(=O)c3c(ncn3C)n(C)c2=O)CC1
- % Inhibition (writhing) ([2]; 2.5 mg/kg s.c.): 0%
- % Inhibition (writhing) ([2]; 5.0 mg/kg s.c.): 53%
- % Inhibition (writhing) ([2]; 10.0 mg/kg s.c.): 77%
- % Inhibition (writhing) ([2]; 25.0 mg/kg s.c.): 85%

SMILES: Cn1cnc2c1c(=O)n(CCCCCN1CCN(c3ccccc3Cl)CC1)c(=O)n2C
- % Inhibition (writhing) ([2]; 1.0 mg/kg s.c.): 0%
- % Inhibition (writhing) ([2]; 2.5 mg/kg s.c.): 56%
- % Inhibition (writhing) ([2]; 5.0 mg/kg s.c.): 87%
- % Inhibition (writhing) ([2]; 10.0 mg/kg s.c.): 100%

SMILES: Cn1cnc2c1c(=O)n(CCCCCCN1CCN(c3ccccc3Cl)CC1)c(=O)n2C
- % Inhibition (writhing) ([2]; 0.25 mg/kg s.c.): 10%
- % Inhibition (writhing) ([2]; 0.5 mg/kg s.c.): 70%
- % Inhibition (writhing) ([2]; 1.0 mg/kg s.c.): 80%
- % Inhibition (writhing) ([2]; 2.5 mg/kg s.c.): 90%
- % Inhibition (writhing) ([2]; 5.0 mg/kg s.c.): 100%

SMILES: COc1ccc(Cc2nccc3cc(OC)c(OC)cc23)cc1OC [Papaverine, reference compound]
- Specific activity (blood flow increase relative to papaverine = 1) [1]: 1

SMILES: CN(C)CCCN1c2ccccc2Sc2ccc(Cl)cc21 [chlorpromazine, reference compound]
- % Inhibition (grooming responses) ([3]; 0.625 mg/kg P.O.): 30%
- Number of grooming responses ([3]; 0.625 mg/kg P.O.): 21.4 ± 4.3
- % Inhibition (grooming responses) ([3]; 2.5 mg/kg P.O.): 91%
- Number of grooming responses ([3]; 2.5 mg/kg P.O.): 2.9 ± 2.9
- % Inhibition (grooming responses) ([3]; 10 mg/kg P.O.): 61%
- Number of grooming responses ([3]; 10 mg/kg P.O.): 5.8 ± 5.8
- % Inhibition (grooming responses) ([3]; 40 mg/kg P.O.): 80%
- Number of grooming responses ([3]; 40 mg/kg P.O.): 5.9 ± 5.9
- % Inhibition (fighting episodes) ([4]; 0.625 mg/kg P.O.): 30%
- No. of fighting episodes ([4]; 0.625 mg/kg P.O.): 3.9 ± 0.8
- % Inhibition (fighting episodes) ([4]; 2.5 mg/kg P.O.): 45%
- No. of fighting episodes ([4]; 2.5 mg/kg P.O.): 3.1 ± 1.0

SMILES: CN1C(=O)CN=C(c2ccccc2)c2cc(Cl)ccc21 [diazepam, reference compound]
- % Inhibition (grooming responses) ([3]; 0.625 mg/kg P.O.): 53%
- Number of grooming responses ([3]; 0.625 mg/kg P.O.): 14.3 ± 4.2
- % Inhibition (grooming responses) ([3]; 2.5 mg/kg P.O.): 68%
- Number of grooming responses ([3]; 2.5 mg/kg P.O.): 9.5 ± 5.2
- % Inhibition (grooming responses) ([3]; 10 mg/kg P.O.): 75%
- Number of grooming responses ([3]; 10 mg/kg P.O.): 7.6 ± 3.2
- % Inhibition (fighting episodes) ([4]; 0.625 mg/kg P.O.): 29%
- No. of fighting episodes ([4]; 0.625 mg/kg P.O.): 4.0 ± 1.0
- % Inhibition (fighting episodes) ([4]; 1.25 mg/kg P.O.): 63%
- No. of fighting episodes ([4]; 1.25 mg/kg P.O.): 2.1 ± 0.9

SMILES: Cn1cnc2c1c(=O)n(CCCCN1CCN(c3cccc(C(F)(F)F)c3)CC1)c(=O)n2C [drawing 17]
- % Inhibition (grooming responses) ([3]; 0.625 mg/kg P.O.): 49%
- Number of grooming responses ([3]; 0.625 mg/kg P.O.): 15.5 ± 5.8
- % Inhibition (grooming responses) ([3]; 2.5 mg/kg P.O.): 46%
- Number of grooming responses ([3]; 2.5 mg/kg P.O.): 16.5 ± 5.9
- % Inhibition (grooming responses) ([3]; 10 mg/kg P.O.): 95%
- Number of grooming responses ([3]; 10 mg/kg P.O.): 1.6 ± 1.6
- % Inhibition (grooming responses) ([3]; 40 mg/kg P.O.): 100%
- Number of grooming responses ([3]; 40 mg/kg P.O.): 0

SMILES: COc1ccccc1N1CCN(CCCCn2c(=O)c3c(ncn3C)n(C)c2=O)CC1 [drawing 18]
- % Inhibition (grooming responses) ([3]; 0.625 mg/kg P.O.): 23%
- Number of grooming responses ([3]; 0.625 mg/kg P.O.): 23.4 ± 6.1
- % Inhibition (grooming responses) ([3]; 2.5 mg/kg P.O.): 49%
- Number of grooming responses ([3]; 2.5 mg/kg P.O.): 15.6 ± 4.5
- % Inhibition (grooming responses) ([3]; 10 mg/kg P.O.): 68%
- Number of grooming responses ([3]; 10 mg/kg P.O.): 9.5 ± 4.1
- % Inhibition (grooming responses) ([3]; 40 mg/kg P.O.): 100%
- Number of grooming responses ([3]; 40 mg/kg P.O.): 0

SMILES: Cn1cnc2c1c(=O)n(CCCCN1CCN(c3cccc(C(F)(F)F)c3)CC1)c(=O)n2C [drawing 19]
- % Inhibition (fighting episodes) ([4]; 0.625 mg/kg P.O.): 25%
- No. of fighting episodes ([4]; 0.625 mg/kg P.O.): 4.2 ± 0.7
- % Inhibition (fighting episodes) ([4]; 2.5 mg/kg P.O.): 81%
- No. of fighting episodes ([4]; 2.5 mg/kg P.O.): 1.0

SMILES: COc1ccccc1N1CCN(CCCCn2c(=O)c3c(ncn3C)n(C)c2=O)CC1 [drawing 20]
- % Inhibition (fighting episodes) ([4]; 0.625 mg/kg P.O.): 41%
- No. of fighting episodes ([4]; 0.625 mg/kg P.O.): 3.3 ± 0.7
- % Inhibition (fighting episodes) ([4]; 2.5 mg/kg P.O.): 71%
- No. of fighting episodes ([4]; 2.5 mg/kg P.O.): 1.6

Source: patent publication US4493837A, “Theobromine derivatives” (Eisai Co., Ltd., priority 1979, dated 1985)
